# Target: T1, hMC4R mutant L106C (Homo sapiens, UniProt P32245, L106C)
# T1 construct: expressed in transfected cells; host or cells: HEK293 CRE-Luciferase cells; mutant made by QuikChange on pcDNA3-MC4R
# Assay: CRE-Luciferase cAMP activity assay, L106C MC4R
# Assay type: cell-based
# Details: L106C MC4R in HEK293 CRE-Luciferase cells, mean ± SEM, N = 3, NA = no activity, read-out: Ligand pEC50 (converted)
# Method: Twenty-four hours posttransfection, HEK293 CRE-Luciferase cells were plated onto 96-well black-wall, clear-bottom, poly-D-lysine-coated microplates (Corning Costar) at a density of 50,000 cells/well and cultured for a further 12–18 h. […] Microtiter plates were incubated for 4 h at 37 °C, after which Luclite® reagent (Perkin-Elmer) was added to each well. The plates were sealed and subjected to dark adaptation for 5 min at room temperature. Luciferase activity was determined by scintillation counting using a TOPCount scintillation counter (Perkin-Elmer).
# All measurements, except where stated, were carried out in triplicate in three independent experiments. The values quoted and depicted graphically are the means of independent determinations with the standard error of the mean. […] In a similar fashion, EC50 values were calculated from the fit of sigmoidal concentration–response curves (three-parameter fit). pIC50 refers to − log IC50, and pEC50 refers to − log EC50.
# T1 sequence (P32245 whole entry L106C): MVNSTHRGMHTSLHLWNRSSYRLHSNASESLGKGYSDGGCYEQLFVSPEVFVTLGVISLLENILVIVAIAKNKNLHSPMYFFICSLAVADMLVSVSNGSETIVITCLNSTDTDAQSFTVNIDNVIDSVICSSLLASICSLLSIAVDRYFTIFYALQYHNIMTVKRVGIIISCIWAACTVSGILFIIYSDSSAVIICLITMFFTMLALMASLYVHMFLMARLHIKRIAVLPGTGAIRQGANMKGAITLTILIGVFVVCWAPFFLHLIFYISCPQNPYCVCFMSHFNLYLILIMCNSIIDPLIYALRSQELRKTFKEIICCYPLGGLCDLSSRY
smiles,measurement,value
CCCC[C@H](NC(=O)[C@H](CO)NC(=O)[C@H](Cc1ccc(O)cc1)NC(=O)[C@H](CO)NC(=O)CCCC[C@@H]1SC[C@@H]2NC(=O)N[C@@H]21)C(=O)N[C@@H](CCC(=O)O)C(=O)N[C@@H](Cc1c[nH]cn1)C(=O)N[C@H](Cc1ccccc1)C(=O)N[C@@H](CS)C(=O)N[C@@H](Cc1c[nH]c2ccccc12)C(=O)NCC(=O)N[C@@H](CCCCN)C(=O)N1CCC[C@H]1C(=O)N[C@H](C(N)=O)C(C)C [Peptide 8],EC50,6.46 nM

# Source: article PMC3101337, “Interactions of the Melanocortin-4 Receptor with the Peptide Agonist NDP-MSH” (Journal of Molecular Biology, 2010)
